We go through 25 compounds from ChEMBL document CHEMBL1146773, “Synthesis of dammarane-type triterpenoids with anti-inflammatory activity in vivo” (2004).

The term Inhibition denotes how much of the control response was suppressed.

Holding throughout (type): functional
For assay [1], the system named is Mus musculus. The experiment in a line: In vivo antiinflammatory activity of 0.04 uM concentration of compound was determined by inhibition of oxazolone-induced allergic contact dermatitis (ACD) in mouse up on tropical application.
The test system of assay [2] is Mus musculus. Description: In vivo antiinflammatory activity of 0.4 uM concentration of compound was determined by inhibition of oxazolone-induced allergic contact dermatitis (ACD) in mouse up on tropical application.
Assay [3] has as its system Mus musculus. The experiment in a line: In vivo antiinflammatory activity of 40 uM concentration of compound was determined by inhibition of oxazolone-induced allergic contact dermatitis (ACD) in mouse up on tropical application.
The subject of assay [4] is Mus musculus. The experiment in a line: In vivo antiinflammatory activity of compound was determined by inhibition of oxazolone-induced allergic contact dermatitis (ACD) in mouse up on tropical application.
Assay [5] has as its system Sus scrofa. The experiment in a line: In vivo antiinflammatory activity of 130 uM concentration of compound was determined by inhibition of oxazolone-induced allergic contact dermatitis (ACD) in pig up on tropical application.
Assay [6] has as its system Sus scrofa. Description: In vivo antiinflammatory activity of 40 uM concentration of compound was determined by inhibition of oxazolone-induced allergic contact dermatitis (ACD) in pig up on tropical application.
The subject of assay [7] is Sus scrofa. Description: In vivo antiinflammatory activity of 400 uM concentration of compound was determined by inhibition of oxazolone-induced allergic contact dermatitis (ACD) in pig up on tropical application.
The subject of assay [8] is Mus musculus. Description: In vivo anti-inflammatory activity determined by inhibition of oxazolone-induced allergic contact dermatitis (ACD) in mouse up on tropical application. More on the design: concentration or dose not given beside the values.
In assay [9] the test system is Mus musculus. Description: In vivo antiinflammatory activity of 4 uM concentration of compound was determined by inhibition of oxazolone-induced allergic contact dermatitis (ACD) in mouse up on tropical application.

`C[C@@H]1C[C@H]2[C@@H]3CCC4=CC(=O)C=C[C@]4(C)[C@@]3(F)[C@@H](O)C[C@]2(C)[C@@]1(O)C(=O)CO` [DEXAMETHASONE]: the Inhibition with Mus musculus [1] is 16%; in the assay on Mus musculus [2] it was 41%; in the assay on Mus musculus [3], 35%; in the assay on Mus musculus [4], 42%; in the assay with Sus scrofa [5], 35%; with Sus scrofa [6], 20%. Moreover, the Inhibition in the assay on Sus scrofa [7] is 32%. With `C[C@H](N)[C@H]1CC[C@]2(C)[C@@H]1CC[C@H]1[C@H]2CC[C@H]2C(C)(C)[C@@H](O)CC[C@]12C` (stereo in doubt; 5A), the Inhibition in the assay with Mus musculus [8] came to 38%. Same read-out and setting: the same measure for `CC(NCCc1ccccc1-n1ccnc1)[C@H]1CC[C@]2(C)[C@@H]1CC[C@H]1[C@H]2CC[C@H]2C(C)(C)[C@@H](O)CC[C@]12C` (stereo not given in full): 13%. The same measure, in the same setting: the same measure for `CC(CCc1ccccc1)[C@H]1CC[C@]2(C)[C@@H]1CC[C@H]1[C@H]2CC[C@H]2C(C)(C)[C@@H](O)CC[C@]12C` (stereo in doubt; 15A): 30%. Still for that read-out and setting: the same measure for `CCCCNC(C)[C@H]1CC[C@]2(C)[C@@H]1CC[C@H]1[C@H]2CC[C@H]2C(C)(C)[C@@H](O)CC[C@]12C` (stereo in doubt; 4aB): 28%; for `CCCCNC(C)[C@H]1CC[C@]2(C)[C@@H]1CC[C@H]1[C@H]2CC[C@H]2C(C)(C)[C@@H](O)CC[C@]12C` (stereo in doubt; 4aA): 30%. In the assay on Mus musculus [8], `C[C@H](NC(=O)/C=C/c1ccccc1)[C@H]1CC[C@]2(C)[C@@H]1CC[C@H]1[C@H]2CC[C@H]2C(C)(C)[C@@H](O)CC[C@]12C` registered an Inhibition of 11%. Same read-out and setting: then `CC(NCc1ccccc1)[C@H]1CC[C@]2(C)[C@@H]1CC[C@H]1[C@H]2CC[C@H]2C(C)(C)[C@@H](O)CC[C@]12C` (stereo in doubt; 4bB), with 15%; and `CC1(C)[C@@H](O)CC[C@]2(C)[C@H]3CC[C@@H]4[C@@H](C(CCc5ccccc5)NCc5ccccc5)CC[C@@]4(C)[C@@H]3CC[C@@H]12` (stereo in doubt; 12A), with 22%. `C=C(C/C=C/C(C)(C)O)[C@@H]1CC[C@]2(C)[C@@H]1CC[C@@H]1[C@@]3(C)CC[C@H](O)C(C)(C)[C@@H]3CC[C@]12C`: the Inhibition in the assay with Mus musculus [2] is reported as 6%; in the assay on Mus musculus [9], 37%; in the assay on Mus musculus [3], 65%; in the assay on Sus scrofa [5], 43%; with Sus scrofa [6] it was 28%. Turning to `C[C@H](N)[C@H]1CC[C@]2(C)[C@@H]1CC[C@H]1[C@H]2CC[C@H]2C(C)(C)[C@@H](O)CC[C@]12C` (stereo in doubt; 5B), in the assay on Mus musculus [8], the Inhibition is 41%. Same read-out and setting: the same measure for `CC1(C)[C@@H](O)CC[C@]2(C)[C@H]3CC[C@@H]4[C@@H](C(N)CCc5ccccc5)CC[C@@]4(C)[C@@H]3CC[C@@H]12` (stereo in doubt; 13A): 30%. In the assay with Mus musculus [8], `CC(NCC(=O)OC(C)(C)C)[C@H]1CC[C@]2(C)[C@@H]1CC[C@H]1[C@H]2CC[C@H]2C(C)(C)[C@@H](O)CC[C@]12C` (stereo in doubt; 4dB) showed an Inhibition of 21%. For the compound `CC1(C)[C@@H](O)CC[C@]2(C)[C@H]3CC[C@@H]4[C@@H](C(CCc5ccccc5)NCc5ccccc5)CC[C@@]4(C)[C@@H]3CC[C@@H]12` (stereo in doubt; 12B), the Inhibition with Mus musculus [8] worked out at 15%. Still for that read-out and setting: then `CC(NCC(=O)OC(C)(C)C)[C@H]1CC[C@]2(C)[C@@H]1CC[C@H]1[C@H]2CC[C@H]2C(C)(C)[C@@H](O)CC[C@]12C` (stereo in doubt; 4dA), with 31%.

The compound `CC1(C)[C@@H](O)CC[C@]2(C)[C@H]3CC[C@@H]4[C@@H](C(O)CCc5ccccc5)CC[C@@]4(C)[C@@H]3CC[C@@H]12` (stereo in doubt; 11B) gave an Inhibition in the assay with Mus musculus [8] of 14%.

In the assay on Mus musculus [8], `CC1(C)[C@@H](O)CC[C@]2(C)[C@H]3CC[C@@H]4[C@@H](C(N)CCc5ccccc5)CC[C@@]4(C)[C@@H]3CC[C@@H]12` (stereo in doubt; 13B) came in with an Inhibition of 6%. The same measure, in the same setting: then `CC(C)CCC(=O)N[C@@H](C)[C@H]1CC[C@]2(C)[C@@H]1CC[C@H]1[C@H]2CC[C@H]2C(C)(C)[C@@H](O)CC[C@]12C`, with 33%.

With `CC(NCCc1ccc(S(N)(=O)=O)cc1)[C@H]1CC[C@]2(C)[C@@H]1CC[C@H]1[C@H]2CC[C@H]2C(C)(C)[C@@H](O)CC[C@]12C` (stereo not given in full), the Inhibition in the assay with Mus musculus [8] worked out at 16%. Same read-out and setting: then `C=C(CCc1ccccc1)[C@H]1CC[C@]2(C)[C@@H]1CC[C@H]1[C@H]2CC[C@H]2C(C)(C)[C@@H](O)CC[C@]12C`, with 36%; and `CC(NCc1nc2ccccc2[nH]1)[C@H]1CC[C@]2(C)[C@@H]1CC[C@H]1[C@H]2CC[C@H]2C(C)(C)[C@@H](O)CC[C@]12C` (stereo not given in full), with 27%. Still for that read-out and setting: then `CC(NCc1ccccc1)[C@H]1CC[C@]2(C)[C@@H]1CC[C@H]1[C@H]2CC[C@H]2C(C)(C)[C@@H](O)CC[C@]12C` (stereo in doubt; 4bA), with 28%; and `CC(=O)[C@H]1CC[C@]2(C)[C@@H]1CC[C@@H]1[C@@]3(C)CC[C@H](O)C(C)(C)[C@@H]3CC[C@]12C`, with 12%. On the same count and under the same terms, then `CC(CCc1ccccc1)[C@H]1CC[C@]2(C)[C@@H]1CC[C@H]1[C@H]2CC[C@H]2C(C)(C)[C@@H](O)CC[C@]12C` (stereo in doubt; 15B), with 29%; and `CC1(C)[C@@H](O)CC[C@]2(C)[C@H]3CC[C@@H]4[C@@H](C(O)CCc5ccccc5)CC[C@@]4(C)[C@@H]3CC[C@@H]12` (stereo in doubt; 11A), with 12%.
